The values that follow come from ChEMBL document CHEMBL1147765, “Discovery of N-(2-hydroxy-2-aryl-cyclohexyl) substituted spiropiperidines as GlyT1 antagonists with improved pharmacological profile” (Bioorg Med Chem Lett, 2006).

SMILES strings stand for the structures. Bounds are passed on as bounds.

The target of series [1] is T1, Sodium- and chloride-dependent glycine transporter 1 (Homo sapiens, UniProt P48067).
T1 sequence (P48067 whole entry): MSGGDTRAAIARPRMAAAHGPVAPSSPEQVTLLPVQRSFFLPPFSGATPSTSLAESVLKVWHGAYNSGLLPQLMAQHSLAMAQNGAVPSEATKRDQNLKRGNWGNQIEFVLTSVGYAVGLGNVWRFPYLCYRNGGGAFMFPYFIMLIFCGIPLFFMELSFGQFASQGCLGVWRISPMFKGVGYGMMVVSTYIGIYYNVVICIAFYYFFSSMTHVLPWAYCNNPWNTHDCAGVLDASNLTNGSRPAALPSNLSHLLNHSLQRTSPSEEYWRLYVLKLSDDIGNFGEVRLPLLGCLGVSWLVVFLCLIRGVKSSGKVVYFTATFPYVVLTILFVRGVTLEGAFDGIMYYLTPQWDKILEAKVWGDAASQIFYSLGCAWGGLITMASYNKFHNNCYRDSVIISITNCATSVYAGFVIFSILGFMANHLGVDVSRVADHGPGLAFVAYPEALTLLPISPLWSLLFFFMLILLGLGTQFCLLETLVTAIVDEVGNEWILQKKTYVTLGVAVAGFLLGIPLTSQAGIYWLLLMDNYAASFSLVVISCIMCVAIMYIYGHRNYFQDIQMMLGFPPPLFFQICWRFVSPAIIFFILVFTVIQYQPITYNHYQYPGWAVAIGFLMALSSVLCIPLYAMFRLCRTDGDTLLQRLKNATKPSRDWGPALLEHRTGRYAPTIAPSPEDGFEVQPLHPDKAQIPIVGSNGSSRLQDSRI
The series can be described thus: Displacement of [3H]glycine from human GlyT1 by radiometric assay.

The target of series [2] is T2, Sodium- and chloride-dependent glycine transporter 2 (Homo sapiens, UniProt Q9Y345).
T2 sequence (Q9Y345 whole entry): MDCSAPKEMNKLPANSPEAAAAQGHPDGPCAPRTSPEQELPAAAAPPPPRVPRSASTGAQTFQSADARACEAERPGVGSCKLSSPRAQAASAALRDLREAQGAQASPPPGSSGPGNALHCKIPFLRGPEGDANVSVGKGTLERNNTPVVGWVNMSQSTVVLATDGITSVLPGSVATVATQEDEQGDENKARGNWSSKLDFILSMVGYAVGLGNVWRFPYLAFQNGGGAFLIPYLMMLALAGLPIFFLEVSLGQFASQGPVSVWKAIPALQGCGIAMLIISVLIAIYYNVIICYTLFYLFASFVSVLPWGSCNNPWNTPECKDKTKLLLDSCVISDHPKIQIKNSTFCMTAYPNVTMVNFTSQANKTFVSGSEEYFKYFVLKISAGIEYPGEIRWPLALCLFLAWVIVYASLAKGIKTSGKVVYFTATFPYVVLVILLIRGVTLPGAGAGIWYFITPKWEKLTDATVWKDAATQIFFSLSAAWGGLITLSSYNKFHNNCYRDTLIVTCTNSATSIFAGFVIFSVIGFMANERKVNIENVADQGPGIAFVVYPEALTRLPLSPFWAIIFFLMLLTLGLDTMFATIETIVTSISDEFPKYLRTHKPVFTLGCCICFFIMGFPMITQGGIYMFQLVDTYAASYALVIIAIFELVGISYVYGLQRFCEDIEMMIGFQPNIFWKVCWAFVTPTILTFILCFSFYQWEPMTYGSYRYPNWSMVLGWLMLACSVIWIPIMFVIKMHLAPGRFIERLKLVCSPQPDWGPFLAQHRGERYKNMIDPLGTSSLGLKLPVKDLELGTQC
Description: Displacement of [3H]glycine from human GlyT2 by radiometric assay.

Series [3] in a line: Maximum achievable bioavailability in mouse microsomes. In kind it is ADME, Liver, microsome. As to conditions: read-out: Max Achievable Bioavailability.
The nature of series [4]: Clearance in mouse microsomes. Type of series: ADME, Liver, Microsome.
Series [5] can be described thus: Maximum achievable bioavailability in human microsomes. Type of series: ADME, Microsome. As to conditions: human liver microsomes, read-out: Max Achievable Bioavailability.
Series [6] in a line: Clearance in human microsomes. As to conditions: human liver microsomes. Type of series: ADME, Microsome.

`CC(C)[C@]1(O)CCCC[C@H]1N1CCC2(CC1)C(=O)NCN2c1ccccc1` (mixture of isomers) returned an EC50 in series [1] above 3000 nM.
Same read-out and setting: then `CC(C)(C)[C@]1(O)CCCC[C@H]1N1CCC2(CC1)C(=O)NCN2c1ccccc1` (racemic), with 29000 nM.
With `O=C1NCN(c2ccccc2)C12CCN([C@@H]1CCOC[C@@]1(O)c1ccccc1)CC2` (racemic), the EC50 in series [1] is 90 nM; in series [2], above 100000 nM.
The molecule `O=C1NCN(c2ccccc2)C12CCN([C@@H]1CCCC[C@@]1(O)Cc1ccccc1)CC2` (racemic) came in with an EC50 in series [1] of 4400 nM.
In the case of `CCCN1CNC(=O)C12CCN([C@@H]1CCCC[C@@]1(O)c1ccccc1)CC2` (racemic), the Fh is 81% in series [3] and 84% in series [5]. Moreover, the intrinsic clearance (microsomal CLint) was found to be 7 µL/min/mg in series [4] and 5 µL/min/mg in series [6]. Moreover, in series [1], the EC50 was found to be 400 nM.
Consider `O=C1NCN(c2ccccc2)C12CCN([C@@H]1CCCC[C@@]1(O)c1ccccc1)CC2` (racemic), for which the EC50 is 44 nM in series [1] and 72000 nM in series [2].
For the molecule `O=C1NCN(c2ccccc2)C12CCN([C@@H]1CCCC[C@@]1(O)c1ccc(Cl)c(Cl)c1)CC2` (racemic), the results for the concentration giving a half-maximal response (EC50) in series [1] and in series [2] were 173 nM and 6000 nM, respectively.
For `Cc1ccc([C@]2(O)CCCC[C@H]2N2CCC3(CC2)C(=O)NCN3c2ccccc2)cc1` (racemic) the same measures were 140 nM and 25000 nM.
For `O=C1NCN(c2ccccc2)C12CCN([C@H]1CCCC[C@@]1(O)c1ccccc1)CC2` (racemic) the same measures were 56 nM and 26000 nM.
In the same order, the values of `COc1ccc(N2CNC(=O)C23CCN([C@@H]2CCCC[C@@]2(O)c2ccc(Cl)cc2)CC3)cc1` (racemic) are 99 nM and 25000 nM.
With `O=C1NCN(c2ccccc2)C12CCN([C@@H]1CCCC[C@@]1(O)c1cccnc1)CC2` (racemic), a half-maximal effect in series [1] (EC50) was put at 110 nM.
The same measure, in the same setting: then `C[C@]1(O)CCCC[C@H]1N1CCC2(CC1)C(=O)NCN2c1ccccc1` (racemic), with 9000 nM.
Consider `O=C1NCN(c2ccccc2)C12CCN([C@@H]1CCCC[C@@]1(O)c1cccc(Cl)c1)CC2` (racemic), for which the EC50 in series [1] worked out at 130 nM; in series [2], 21000 nM.
In the same order, the values of `O=C1NCN(c2ccc(Cl)cc2)C12CCN([C@@H]1CCCC[C@@]1(O)c1ccc(F)cc1)CC2` (racemic) are 15 nM and 2500 nM.
For `O=C1NCN(c2ccccc2)C12CCN([C@@H]1COCC[C@@]1(O)c1ccccc1)CC2` (racemic) the same measures were 58 nM and 35000 nM.
As for `O=C1NCN(c2ccccc2)C12CCN([C@@H]1CCCC[C@@]1(O)c1ccccn1)CC2` (racemic), the values for the EC50 in series [1] and in series [2] were 130 nM and above 100000 nM, respectively.
Take `COc1ccc([C@]2(O)CCCC[C@H]2N2CCC3(CC2)C(=O)NCN3c2ccccc2)cc1` (racemic): the EC50 in series [1] turned out to be 261 nM; in series [2], 67000 nM.
`CCCN1CNC(=O)C12CCN([C@H]1CCCC[C@H]1c1ccccc1)CC2` (racemic): the figures for the microsomal CLint in series [4] and in series [6] were 10 µL/min/mg and 25 µL/min/mg, respectively.
For `O=C1NCN(c2ccc(F)cc2)C12CCN([C@@H]1CCCC[C@@]1(O)c1ccc(Cl)cc1)CC2` (racemic), the EC50 in series [1] was 24 nM; in series [2], 19000 nM.
As for `O=C1NCN(c2ccccc2)C12CCN([C@@H]1CCCC[C@@]1(O)c1ccncc1)CC2` (racemic), the concentration for a half-maximal effect (EC50) in series [1] is 62 nM; in series [2], above 100000 nM.
For `O=C1NCN(c2ccccc2)C12CCN([C@@H]1CCCC[C@@]1(O)c1ccc(Cl)cc1)CC2` (racemic) the same measures were 80 nM and 16000 nM.
Regarding `COc1cccc([C@]2(O)CCCC[C@H]2N2CCC3(CC2)C(=O)NCN3c2ccccc2)c1` (racemic), the EC50 amounted to 130 nM in series [1] and 41000 nM in series [2].
In the same order, the values of `Cc1ccccc1[C@]1(O)CCCC[C@H]1N1CCC2(CC1)C(=O)NCN2c1ccccc1` (racemic) are 50 nM and 70000 nM.
With `O=C1NCN(c2ccccc2)C12CCN([C@@H]1CCCC[C@@]1(O)C1CCCCC1)CC2` (racemic), a half-maximal effect in series [1] (EC50) was put at 17000 nM.
On to `O=C1NCN(c2ccccc2)C12CCN([C@H]1CCCC[C@H]1c1ccccc1)CC2` (racemic), for which the microsomal CLint in series [6] is 68 µL/min/mg.
As for `O=C1NCN(c2ccc(F)cc2)C12CCN([C@@H]1CCCC[C@@]1(O)c1ccc(F)cc1)CC2` (racemic), the microsomal CLint in series [4] is 102 µL/min/mg; in series [6] it was 92 µL/min/mg. Also, the EC50 stood at 24 nM in series [1] and 36000 nM in series [2].
Turning to `O=C1NCN(c2ccccc2)C12CCN([C@@H]1CCCC[C@@]1(O)c1ccc(F)cc1)CC2` (relative stereo), the EC50 in series [1] turned out to be 40 nM; in series [2], 57000 nM.
